Experiments:
[1] = tested on: S. pneumoniae A66.1 Xen 10; set-up: species or system Streptococcus pneumoniae; conditions: in vivo
Method: Thus, the strains HUSTMBIG, A66.1, EF3030 and 140301 were made bioluminescent and tested in both mouse lung and nasopharyngeal models. Briefly, exponential cultures of S. pneumoniae grown at 37° C. in BHI were pelleted and then resuspended in fresh BHI broth. Bacterial concentrations were estimated spectrophotometrically by absorbance at 600 nm and adjusted to approximately […] by dilution BHI. Cell numbers were verified by plating dilutions of inoculum onto BHI agar.
Pneumococci were introduced into the lungs of the mice by either direct intratracheal inoculation, or by intranasal administration. The animals were anesthetized with ketamine (100 mg/ml) and xylazine (20 mg/ml), mixed at a 4:1 ratio v/v just before use. The anesthesia mixture was injected intramuscularly into the right hamstring muscle at a dose of 100 mg ketamine/kg of body weight. After anesthesia was established, the mice were inoculated with approximately 10^6 CFU in a total volume of 20 μl, using a 25 ga. Ball-tipped gavage needle. Mice were held in vertical suspension for 10 minutes after inoculation to facilitate deep penetration of the inoculum. Alternatively, mice were infected intranasally with approximately 10^6 CFU by placing 20 μl of bacterial suspension on the nares and allowing the mice to inhale the inoculum. In the antibiotic studies, mice were treated with amoxicillin at 1 mg/kg or 5 mg/kg, given subcutaneously at t=0, 18, 24, and 42 hours post-infection.
Mice were imaged for a maximum of 5 min at a number of time points post-infection using an IVIS™ CCD camera (Xenogen Corporation, Alameda, Calif.). Total photon emission from selected and defined areas within the images of each mouse was quantified using the LivingImage™ software package (Xenogen Corporation, Alameda, Calif.). The photon signal from the thorax was quantified from the ventral image of each mouse.
Twelve mice were inoculated with approximately 10^6 CFU of S. pneumoniae A66.1 Xen 10. The mice were divided into three groups of four animals and two of these groups were treated with an amoxicillin regime at 1 or 5 mg/kg, the third group of animals remaining untreated as controls.
After the final imaging time point, mice were sacrificed and the infected lung tissue was surgically removed and weighed. Both lungs were homogenized together in 500 μl BHI in a loose Dounce homogenizer. The suspension was serially diluted in BHI and plated in duplicate onto BHI agar. Bacterial burden was estimated from the number of CFU/g of lung tissue. The bacterial load present in the nasal passage of the mice was obtained by washing approximately 0.25 ml of saline through the trachea and collecting the first 0.1 ml of nasal wash as it exited the nares, as described (Lipsitch et al. (2000) Vaccine 18:2895–2901; Wu et al. (1997) Microb. Pathog. 23:127–137).

MRSA strain I6 = assay: antibiotic resistance of MRSA strain; format: cell-based, S. aureus
[2] = tested on: S. pneumoniae pAUL-A Tn4001 luxABCDE km^R; assay: growth and colony formation of S. pneumoniae transformants in the presence of kanamycin; format: cell-based, Streptococcus pneumoniae; conditions: 10^3 CFUs plated on chocolate agar, increasing kanamycin 400 to 1000 μg/ml; approximately 1000 CFUs without kanamycin

SMILES: CC1(C)S[C@@H]2[C@H](NC(=O)[C@H](N)c3ccc(O)cc3)C(=O)N2[C@H]1C(=O)O [amoxicillin]
- appearance of treated mice [1]: appeared relatively healthy
- highest number of pneumococci isolated from a treated animal (lung tissue) [1]: 300 CFU/g tissue
- treated animals showing no bacteria present in lung tissue [1]: four of the eight
- animals with a bioluminescent signal ([1]; sc, 1 mg/kg): Three of the four
- animals with a significant bioluminescent signal ([1]; sc, 5 mg/kg): None of the four

SMILES: O=C(N[C@H](CO)[C@H](O)c1ccc([N+](=O)[O-])cc1)C(Cl)Cl [chloremphenicol]
- resistance of strain to antibiotics tested (MRSA strain I6): resistant to all the antibiotics tested except for chloremphenicol

SMILES: NC[C@H]1O[C@H](O[C@H]2[C@H](O)[C@@H](O[C@H]3O[C@H](CO)[C@@H](O)[C@H](N)[C@H]3O)[C@H](N)C[C@@H]2N)[C@H](O)[C@@H](O)[C@@H]1O [kanamycin]
- number of colonies (average) [2]: 56 to 35

— patent publication US7056728B2, “Compositions and methods for use thereof in modifying the genomes of microorganisms” (priority 2000, dated 2006)
